Experimental findings from patent US10501575B2, “Biomimetic fluoroscopic films” (THE BOARD OF REGENTS OF THE UNIVERSITY OF TEXAS SYSTEM, priority 2015, dated 2019) are described below.

For assay [1], the system named is TNF-α. Description: Anti-inflammatory effect, TNF-α ELISA in LPS stimulated RAW 264.7 cells. The assay is classed as cell-based, mouse. The note with it: for Cytokine Concentration TNF-α: LPS, 24 h. An excerpt: (§1) Therapeutic effect. […] PTNP concentrations were compared to free dexamethasone in media, which simulates systemic delivery. The experimental design included the expected concentrations of dexamethasone released from PTNP groups.

For assay [2], the system named is IL-1β. Description: Anti-inflammatory effect, IL-1β ELISA in LPS stimulated RAW 264.7 cells. The assay is classed as cell-based, mouse. Particulars: for Cytokine Concentration IL-1β: LPS, 24 h.
From the text: as §1

Consider `C[C@@H]1C[C@H]2[C@@H]3CCC4=CC(=O)C=C[C@]4(C)[C@@]3(F)[C@@H](O)C[C@]2(C)[C@@]1(O)C(=O)CO` [Free DEX, dexamethasone], for which the “concentration required to maintain TNF-α control concentration levels in the presence of stimuli” value in assay [1] (ELISA) worked out at 0.23 mg/mL. Besides, the “Cytokine Concentration TNF-α” value in assay [1] (Free DEX 0.10 mg/mL) was determined as 78 ± 3 pg/mL; in assay [1] (Free DEX 0.50 mg/mL), 66 ± 3 pg/mL; in assay [1] (Free DEX 1.00 mg/mL), 50 ± 3 pg/mL; in assay [1] (Free DEX 2.00 mg/mL) it was 35 ± 6 pg/mL. Also, the TNF-α versus control result in assay [1] (free dexamethasone 0.10-0.50 mg/mL) is listed as “lowered TNF-α but not enough to be comparable to the control”. Besides, in assay [1] (free dexamethasone in media 1 and 2 mg/mL), the “TNF-α concentrations versus control” value is on record as “lowered TNF-α concentrations to control levels”. Also, in assay [2] (ELISA), the “concentration required to maintain IL-1β control concentration levels in the presence of stimuli” value is listed as 0.23 mg/mL. The “Cytokine Concentration IL-1β” value in assay [2] (Free DEX 0.10 mg/mL) turned out to be 1009 ± 7 pg/mL; in assay [2] (Free DEX 0.50 mg/mL), 759 ± 7 pg/mL; in assay [2] (Free DEX 1.00 mg/mL), 491 ± 2 pg/mL; in assay [2] (Free DEX 2.00 mg/mL), 489 ± 4 pg/mL.
